Activity calls are given as the source filed them.
Assays:
Escherichia coli [1] = experiment: microbe, parasite or virus in culture
Beta-galactosidase = Beta-galactosidase (Escherichia coli, UniProt Q8VNN2); experiment: detection-enzyme interference by beta-gal modulators – biochemical, E. coli enzyme, set 3, artefact control for CCR6 antagonist project, dose response (AID 504712); assay type: functional
[2] = target: G-protein coupled receptor 55 (Homo sapiens, UniProt Q9Y2T6); experiment: inhibition of LPI-stimulated GPR55 beta-arrestin translocation – imaging, U2OS, beta-arrestin-GFP, LPI agonist, primary screen (AID 2013); assay type: functional;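 further: antagonist potency measured as reduced agonist-driven arrestin aggregation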
Escherichia coli [3] = experiment: microbe, parasite or virus in culture; remark: listed apart in the source
Hexokinase = target: T1, Hexokinase (Trypanosoma brucei, UniProt Q38C41); experiment: Confirmation assay for inhibitors of Trypanosoma brucei hexokinase 1-Analogue-first series. [Related pubchem assays (depositor defined):AID1430, AID1632, AID2516, AID2560, AID2579, AID2600, AID449725, AID492951]; assay type: functional
T1 sequence (Q38C41 whole entry): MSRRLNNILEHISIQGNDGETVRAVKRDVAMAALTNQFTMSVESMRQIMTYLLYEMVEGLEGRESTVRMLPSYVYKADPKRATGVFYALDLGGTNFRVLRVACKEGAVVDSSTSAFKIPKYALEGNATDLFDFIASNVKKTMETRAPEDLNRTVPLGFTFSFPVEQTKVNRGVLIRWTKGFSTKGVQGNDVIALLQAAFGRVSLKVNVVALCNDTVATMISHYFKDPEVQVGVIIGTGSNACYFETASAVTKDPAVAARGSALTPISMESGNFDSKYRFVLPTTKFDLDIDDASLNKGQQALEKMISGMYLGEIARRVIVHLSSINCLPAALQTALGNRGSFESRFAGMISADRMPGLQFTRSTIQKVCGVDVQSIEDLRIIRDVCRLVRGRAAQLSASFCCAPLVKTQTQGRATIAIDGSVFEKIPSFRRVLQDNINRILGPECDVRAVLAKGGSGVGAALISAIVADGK

[4] = alpha-synuclein stem-loop luciferase translation blockers – H4 neuroglioma cells, luminescence, confirmation (AID 1988); assay type: functional, cell-based
[5] = Luminescence Cell-Based Dose Response HTS to Identify Inhibitors of 5'UTR Stem-Loop Driven Prion Protein mRNA Translation in H4 Neuroglioblastoma Cells. [Related pubchem assays: 1827 (Project Summary), 1813 (Primary HTS)]; assay type: functional
[6] = luciferase reporter signal suppression in cells – H4 neuroglioma cells, luminescence, dose response (AID 1990); assay type: functional, cell-based
Bcl-2-related protein A1 = target: T2, Bcl-2-related protein A1 (Mus musculus, UniProt Q07440); assay type: functional;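 further: confirmatory dose–response counterscreen on Bfl-1, used to check hits from a UBC13 polyubiquitin inhibitor campaign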
T2 sequence (Q07440 whole entry): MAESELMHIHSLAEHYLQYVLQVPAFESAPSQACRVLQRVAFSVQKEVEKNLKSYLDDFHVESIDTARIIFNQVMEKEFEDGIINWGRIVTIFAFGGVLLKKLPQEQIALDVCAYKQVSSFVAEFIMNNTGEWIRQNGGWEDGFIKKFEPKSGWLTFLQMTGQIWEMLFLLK

[7] = target: T3, Ubiquitin-conjugating enzyme E2 N (Homo sapiens, UniProt P61088); assay type: functional
T3 sequence (P61088 whole entry): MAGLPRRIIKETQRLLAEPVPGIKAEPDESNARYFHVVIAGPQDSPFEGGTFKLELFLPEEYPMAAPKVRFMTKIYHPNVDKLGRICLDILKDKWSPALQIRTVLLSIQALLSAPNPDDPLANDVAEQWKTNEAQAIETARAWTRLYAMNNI

[8] = target: T3, Ubiquitin-conjugating enzyme E2 N; assay type: functional; remark: listed apart in the source
[9] = HEK-293T cell viability reduction – luminescence, B-cell screen hits, cytotoxicity control for BCR NF-kB inhibitor project, dose response (AID 489021); assay type: functional, cell-based;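 further: HEK-293T cells carrying an NF-kB luciferase reporter; cells exposed to compound for about 14 hours before viability readout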
H9c2 = experiment: cells; assay type: functional, cell-based; details: Rattus norvegicus, H9c2, Myocardium
Interleukin-8 [10] = target: T4, Interleukin-8 (Homo sapiens, UniProt P10145); experiment: SAR analysis of GM-Tri-DAP induced IL-8 secretion in MCF-7/NOD1 cells - Set 2. [Related pubchem assays (depositor defined):AID1575, AID1578, AID2333]; assay type: functional, cell-based
T4 sequence (P10145 whole entry): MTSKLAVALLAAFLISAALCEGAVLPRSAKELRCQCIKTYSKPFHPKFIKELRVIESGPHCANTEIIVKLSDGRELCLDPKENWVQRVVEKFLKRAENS

[11] = target: T5, Nucleotide-binding oligomerization domain-containing protein 1 (Homo sapiens, UniProt Q9Y239); experiment: blockers of NOD1 pathway activity – revised, SAR follow-up (AID 2333); assay type: functional
T5 sequence (Q9Y239 whole entry): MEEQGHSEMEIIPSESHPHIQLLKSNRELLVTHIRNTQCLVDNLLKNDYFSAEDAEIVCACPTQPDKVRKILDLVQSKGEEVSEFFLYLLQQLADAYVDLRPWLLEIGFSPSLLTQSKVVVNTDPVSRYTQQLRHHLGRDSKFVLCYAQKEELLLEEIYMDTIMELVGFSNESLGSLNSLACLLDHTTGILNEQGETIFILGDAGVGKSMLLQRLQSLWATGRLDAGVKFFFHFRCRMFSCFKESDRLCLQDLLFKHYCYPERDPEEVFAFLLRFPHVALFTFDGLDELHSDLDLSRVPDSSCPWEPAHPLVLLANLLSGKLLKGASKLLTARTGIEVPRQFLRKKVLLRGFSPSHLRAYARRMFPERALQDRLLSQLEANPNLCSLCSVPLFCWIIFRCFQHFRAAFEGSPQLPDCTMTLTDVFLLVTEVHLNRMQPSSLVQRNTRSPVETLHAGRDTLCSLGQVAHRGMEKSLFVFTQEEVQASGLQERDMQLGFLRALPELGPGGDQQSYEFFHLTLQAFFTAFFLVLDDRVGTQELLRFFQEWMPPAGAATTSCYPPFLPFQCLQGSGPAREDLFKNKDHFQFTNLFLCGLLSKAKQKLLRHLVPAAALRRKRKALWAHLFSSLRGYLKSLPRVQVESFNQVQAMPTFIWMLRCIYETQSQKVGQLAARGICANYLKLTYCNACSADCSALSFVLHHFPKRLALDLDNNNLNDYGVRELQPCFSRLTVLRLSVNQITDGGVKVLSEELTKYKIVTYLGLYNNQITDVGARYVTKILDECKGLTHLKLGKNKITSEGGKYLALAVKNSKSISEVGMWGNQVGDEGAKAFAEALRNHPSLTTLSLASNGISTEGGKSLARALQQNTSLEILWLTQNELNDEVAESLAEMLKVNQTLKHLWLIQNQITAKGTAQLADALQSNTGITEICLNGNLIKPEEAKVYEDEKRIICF

Interleukin-8 [12] = target: T4, Interleukin-8; experiment: SAR analysis of Tumor necrosis factor alpha (TNF-alpha) induced IL-8 secretion in MCF-7/NOD1 cells - Set 2. [Related pubchem assays (depositor defined):AID1575, AID2250, AID2260]; assay type: functional, cell-based
HEK293 = experiment: cells; details: Homo sapiens
Tumor necrosis factor = Tumor necrosis factor (Homo sapiens, UniProt P01375); experiment: analog potency on TNFa NF-kB signaling – cell-based, revised, SAR follow-up (AID 2337); assay type: functional
[13] = target: Glyceraldehyde-3-phosphate dehydrogenase (Homo sapiens, UniProt P04406)
[14] = target: Alkaline phosphatase, placental type (Homo sapiens, UniProt P05187); experiment: human placental alkaline phosphatase inhibition – biochemical, luminescence, confirmation (AID 1512); assay type: functional
Streptococcus = experiment: GAS UMAA2166 growth inhibition – luminescence, BacTiterGlo, counter-screen for streptokinase expression inhibitor project, dose response (AID 1915); assay type: functional, organism-based;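 further: potency for reduction of bacterial viability or growth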
Streptokinase A = target: T6, Streptokinase A (Streptococcus pyogenes serotype M1, UniProt P10520); experiment: viability-normalized secreted streptokinase activity reduction – plasminogen activation absorbance, OD405, dose response (AID 1914); assay type: functional, Streptococcus pyogenes M1 GAS;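 further: secreted streptokinase activity via plasminogen activation per viability signal from cell pellet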
T6 sequence (P10520 whole entry): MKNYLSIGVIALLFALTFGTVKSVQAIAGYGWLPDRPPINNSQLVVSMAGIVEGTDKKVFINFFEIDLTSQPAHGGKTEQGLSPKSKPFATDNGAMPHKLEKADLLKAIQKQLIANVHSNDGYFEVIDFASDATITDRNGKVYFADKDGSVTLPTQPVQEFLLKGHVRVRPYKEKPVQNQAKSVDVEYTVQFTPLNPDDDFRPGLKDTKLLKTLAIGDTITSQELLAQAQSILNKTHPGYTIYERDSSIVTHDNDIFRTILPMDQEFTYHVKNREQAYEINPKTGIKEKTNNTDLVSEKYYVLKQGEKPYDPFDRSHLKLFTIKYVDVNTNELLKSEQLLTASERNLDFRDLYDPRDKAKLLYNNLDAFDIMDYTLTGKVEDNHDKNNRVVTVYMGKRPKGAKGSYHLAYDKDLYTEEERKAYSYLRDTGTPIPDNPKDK

[15] = tested on: Streptococcus sp. 'group A'; experiment: Streptococcus pyogenes SK(-)GAS viability under kanamycin – luminescence, BacTiterGlo, confirmation, counter-screen for streptokinase expression inhibitor project, dose response (AID 1900); assay type: functional, organism-based
[16] = target: Heat shock protein HSP 90-alpha (Homo sapiens, UniProt P07900); assay type: functional, organism-based
Fatty acid synthase [17] = target: T7, Fatty acid synthase (Homo sapiens, UniProt P49327); experiment: inhibition of human FAS-TE enzyme activity – biochemical, kinetic fluorescence intensity, dose response (AID 624326); assay type: functional;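 further: rate of fluorescence rise from hydrolysis of a fluorogenic O-methyl fluorescein ester substrate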
Fatty acid synthase [18] = target: T7, Fatty acid synthase; experiment: inhibition of human FAS-TE enzyme activity – biochemical, endpoint fluorescence intensity, uHTS hits, dose response (AID 624327); assay type: functional;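 further: fluorescence from hydrolysis of an O-methyl fluorescein acyl ester substrate by the enzyme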

Beta-galactosidase, sequence (Q8VNN2 whole entry): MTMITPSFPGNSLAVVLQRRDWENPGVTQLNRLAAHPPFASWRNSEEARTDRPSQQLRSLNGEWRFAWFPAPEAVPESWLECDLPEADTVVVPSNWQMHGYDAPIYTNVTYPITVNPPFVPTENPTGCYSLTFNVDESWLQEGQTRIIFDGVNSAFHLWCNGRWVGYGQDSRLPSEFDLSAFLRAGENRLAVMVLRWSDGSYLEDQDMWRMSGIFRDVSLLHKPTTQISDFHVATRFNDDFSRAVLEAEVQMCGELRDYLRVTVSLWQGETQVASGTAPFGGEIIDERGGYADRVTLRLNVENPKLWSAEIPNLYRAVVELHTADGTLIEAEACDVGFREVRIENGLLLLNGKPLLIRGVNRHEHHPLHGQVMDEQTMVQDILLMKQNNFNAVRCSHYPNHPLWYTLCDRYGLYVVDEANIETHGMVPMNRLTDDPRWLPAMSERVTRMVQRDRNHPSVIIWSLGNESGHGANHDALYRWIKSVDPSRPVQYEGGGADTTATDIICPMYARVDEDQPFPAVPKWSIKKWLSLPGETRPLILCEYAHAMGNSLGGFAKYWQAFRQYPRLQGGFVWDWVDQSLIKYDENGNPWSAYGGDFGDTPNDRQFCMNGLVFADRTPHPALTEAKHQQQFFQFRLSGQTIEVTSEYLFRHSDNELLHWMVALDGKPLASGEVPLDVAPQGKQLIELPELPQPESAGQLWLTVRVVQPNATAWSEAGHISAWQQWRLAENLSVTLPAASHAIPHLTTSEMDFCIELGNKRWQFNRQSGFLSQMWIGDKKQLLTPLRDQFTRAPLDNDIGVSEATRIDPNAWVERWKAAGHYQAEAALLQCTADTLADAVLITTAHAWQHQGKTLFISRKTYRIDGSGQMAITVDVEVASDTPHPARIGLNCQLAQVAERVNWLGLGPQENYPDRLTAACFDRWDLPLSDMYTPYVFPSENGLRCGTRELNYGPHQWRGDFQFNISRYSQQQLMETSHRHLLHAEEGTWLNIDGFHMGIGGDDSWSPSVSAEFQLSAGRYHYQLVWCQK
G-protein coupled receptor 55, sequence (Q9Y2T6 whole entry): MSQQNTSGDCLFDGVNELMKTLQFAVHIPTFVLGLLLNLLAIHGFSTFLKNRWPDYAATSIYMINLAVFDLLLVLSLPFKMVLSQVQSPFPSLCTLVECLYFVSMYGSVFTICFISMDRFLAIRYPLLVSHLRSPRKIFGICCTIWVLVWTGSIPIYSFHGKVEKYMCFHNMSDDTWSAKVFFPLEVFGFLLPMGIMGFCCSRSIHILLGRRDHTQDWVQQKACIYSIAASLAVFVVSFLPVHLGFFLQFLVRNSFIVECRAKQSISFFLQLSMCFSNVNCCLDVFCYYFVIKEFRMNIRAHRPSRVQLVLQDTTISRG
T7 sequence (P49327 whole entry): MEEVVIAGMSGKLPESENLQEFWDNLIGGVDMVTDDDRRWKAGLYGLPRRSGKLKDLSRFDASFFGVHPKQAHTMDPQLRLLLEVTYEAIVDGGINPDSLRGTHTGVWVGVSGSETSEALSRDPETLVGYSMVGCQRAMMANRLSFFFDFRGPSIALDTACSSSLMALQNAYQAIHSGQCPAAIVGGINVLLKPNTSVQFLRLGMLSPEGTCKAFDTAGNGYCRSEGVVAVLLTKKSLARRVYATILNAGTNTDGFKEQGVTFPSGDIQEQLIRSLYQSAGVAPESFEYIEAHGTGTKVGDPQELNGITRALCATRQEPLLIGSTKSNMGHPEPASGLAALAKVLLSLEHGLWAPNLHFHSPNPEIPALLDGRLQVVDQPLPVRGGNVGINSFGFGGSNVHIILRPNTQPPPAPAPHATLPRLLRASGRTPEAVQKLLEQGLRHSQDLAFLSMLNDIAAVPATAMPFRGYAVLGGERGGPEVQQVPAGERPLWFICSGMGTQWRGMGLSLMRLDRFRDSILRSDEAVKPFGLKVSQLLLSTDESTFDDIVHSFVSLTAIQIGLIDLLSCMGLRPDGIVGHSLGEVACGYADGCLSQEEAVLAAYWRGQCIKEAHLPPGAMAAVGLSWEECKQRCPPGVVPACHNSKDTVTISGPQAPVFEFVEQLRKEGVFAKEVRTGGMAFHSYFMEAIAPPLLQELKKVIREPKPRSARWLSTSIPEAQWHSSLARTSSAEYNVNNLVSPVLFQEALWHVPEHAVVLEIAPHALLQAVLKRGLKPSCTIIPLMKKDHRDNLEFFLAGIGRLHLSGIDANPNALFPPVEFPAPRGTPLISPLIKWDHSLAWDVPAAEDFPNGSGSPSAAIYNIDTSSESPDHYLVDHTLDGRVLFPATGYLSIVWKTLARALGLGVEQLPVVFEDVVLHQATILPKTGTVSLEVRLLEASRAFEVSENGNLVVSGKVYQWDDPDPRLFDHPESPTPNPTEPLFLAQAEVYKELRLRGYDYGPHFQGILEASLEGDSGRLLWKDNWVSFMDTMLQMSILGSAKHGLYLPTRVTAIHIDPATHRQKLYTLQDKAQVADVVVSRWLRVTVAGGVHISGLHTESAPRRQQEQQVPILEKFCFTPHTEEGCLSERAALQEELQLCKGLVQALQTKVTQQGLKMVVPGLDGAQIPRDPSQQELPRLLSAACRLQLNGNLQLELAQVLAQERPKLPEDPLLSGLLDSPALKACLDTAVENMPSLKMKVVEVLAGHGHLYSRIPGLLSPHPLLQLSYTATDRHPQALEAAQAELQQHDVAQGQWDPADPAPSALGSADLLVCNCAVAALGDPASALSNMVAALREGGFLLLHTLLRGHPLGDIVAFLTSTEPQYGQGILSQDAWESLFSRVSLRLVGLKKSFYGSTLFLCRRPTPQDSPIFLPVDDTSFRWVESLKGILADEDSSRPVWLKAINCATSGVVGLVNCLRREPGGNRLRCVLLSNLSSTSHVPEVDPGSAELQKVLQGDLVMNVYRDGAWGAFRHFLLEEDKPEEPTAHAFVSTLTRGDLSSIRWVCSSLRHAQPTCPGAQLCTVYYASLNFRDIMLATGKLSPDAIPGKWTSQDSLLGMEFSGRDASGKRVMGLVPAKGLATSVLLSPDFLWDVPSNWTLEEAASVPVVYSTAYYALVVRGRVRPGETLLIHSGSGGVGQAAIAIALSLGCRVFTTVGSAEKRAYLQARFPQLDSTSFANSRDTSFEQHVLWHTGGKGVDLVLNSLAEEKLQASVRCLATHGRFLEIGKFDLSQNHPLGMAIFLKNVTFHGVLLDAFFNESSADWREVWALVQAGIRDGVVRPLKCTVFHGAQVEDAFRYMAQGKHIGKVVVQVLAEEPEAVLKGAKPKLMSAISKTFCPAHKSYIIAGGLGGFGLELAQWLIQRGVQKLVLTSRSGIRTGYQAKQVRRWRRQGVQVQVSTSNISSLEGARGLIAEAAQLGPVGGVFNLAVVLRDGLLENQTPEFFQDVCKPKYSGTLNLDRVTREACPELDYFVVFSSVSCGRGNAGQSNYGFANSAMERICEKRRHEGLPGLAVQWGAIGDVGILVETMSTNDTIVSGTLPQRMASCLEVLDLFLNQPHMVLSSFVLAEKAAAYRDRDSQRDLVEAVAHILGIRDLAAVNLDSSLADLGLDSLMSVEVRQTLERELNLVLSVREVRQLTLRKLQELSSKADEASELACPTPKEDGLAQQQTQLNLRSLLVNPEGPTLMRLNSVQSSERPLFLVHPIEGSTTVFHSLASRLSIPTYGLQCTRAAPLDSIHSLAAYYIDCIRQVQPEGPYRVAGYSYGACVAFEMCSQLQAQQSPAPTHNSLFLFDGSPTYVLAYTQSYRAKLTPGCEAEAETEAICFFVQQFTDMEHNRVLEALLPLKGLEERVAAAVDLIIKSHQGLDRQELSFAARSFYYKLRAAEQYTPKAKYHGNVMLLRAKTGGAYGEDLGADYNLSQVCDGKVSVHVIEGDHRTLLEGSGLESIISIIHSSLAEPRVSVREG
Tumor necrosis factor, sequence (P01375 whole entry): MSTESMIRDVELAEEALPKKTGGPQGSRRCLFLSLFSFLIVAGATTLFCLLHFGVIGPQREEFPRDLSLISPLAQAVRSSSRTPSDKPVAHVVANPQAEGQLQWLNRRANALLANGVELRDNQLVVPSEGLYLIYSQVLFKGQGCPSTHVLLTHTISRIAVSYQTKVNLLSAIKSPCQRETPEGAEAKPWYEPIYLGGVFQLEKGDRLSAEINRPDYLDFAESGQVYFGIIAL
Alkaline phosphatase, placental type, sequence (P05187 whole entry): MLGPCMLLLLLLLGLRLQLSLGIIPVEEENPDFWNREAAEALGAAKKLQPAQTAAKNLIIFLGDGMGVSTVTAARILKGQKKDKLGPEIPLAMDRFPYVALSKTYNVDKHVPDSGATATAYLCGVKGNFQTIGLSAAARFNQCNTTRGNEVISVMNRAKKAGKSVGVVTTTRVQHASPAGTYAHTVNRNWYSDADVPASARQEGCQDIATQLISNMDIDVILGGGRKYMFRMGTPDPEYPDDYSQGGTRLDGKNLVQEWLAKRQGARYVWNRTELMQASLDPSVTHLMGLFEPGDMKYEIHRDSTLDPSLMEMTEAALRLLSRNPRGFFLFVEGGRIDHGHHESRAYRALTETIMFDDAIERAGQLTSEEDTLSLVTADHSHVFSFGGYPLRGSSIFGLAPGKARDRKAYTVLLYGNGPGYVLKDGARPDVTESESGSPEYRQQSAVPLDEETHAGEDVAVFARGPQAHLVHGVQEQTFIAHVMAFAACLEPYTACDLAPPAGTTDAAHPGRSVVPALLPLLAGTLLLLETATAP
Glyceraldehyde-3-phosphate dehydrogenase, sequence (P04406 whole entry): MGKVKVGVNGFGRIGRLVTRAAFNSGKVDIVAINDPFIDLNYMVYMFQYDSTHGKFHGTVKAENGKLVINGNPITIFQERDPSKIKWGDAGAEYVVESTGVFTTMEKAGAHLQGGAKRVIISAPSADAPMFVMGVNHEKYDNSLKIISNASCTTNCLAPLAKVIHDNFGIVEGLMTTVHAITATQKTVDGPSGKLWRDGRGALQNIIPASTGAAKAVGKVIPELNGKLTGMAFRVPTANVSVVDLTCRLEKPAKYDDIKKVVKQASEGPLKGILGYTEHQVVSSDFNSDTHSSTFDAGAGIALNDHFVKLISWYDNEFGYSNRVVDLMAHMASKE

## O=C1CC(c2cc(-c3ccccc3)no2)C1
Escherichia coli [1]
  AC50: 34.5 µM (active)

## Cc1nn(-c2nc3ccccc3[nH]2)c(N)c1-c1ccccc1
Beta-galactosidase
  IC50: > 66.6 µM (inactive)

## O=C(c1cccc(Oc2ccc([N+](=O)[O-])cc2Cl)c1)N1CCCCC1
[2]
  IC50: 5.09 µM (active)

## CC(C)(C)c1cc(NS(=O)(=O)c2ccc3c(c2)OCCO3)on1
Escherichia coli [3]
  AC50: 31 µM (active)

## O=C(Cn1sc2ccccc2c1=O)Nc1ccccc1Cl
Hexokinase
  IC50: 4.16 µM (active)

## Cc1ccnc(SCCn2c(N3CC(C)CC(C)C3)nc3c2c(=O)n(C)c(=O)n3C)n1 (stereo not drawn)
[4]
  EC50: > 120 µM (not active)
[5]
  EC50: > 120 µM (not active)
[6]
  EC50: 39.1 µM (active)
Escherichia coli [3]
  AC50: 35.1 µM (active)

## Cc1ccc(S(=O)(=O)n2cc(C=O)c3ccccc32)cc1
Bcl-2-related protein A1
  IC50: > 20 µM (inactive)
[7]
  IC50: 11 µM (active)
[8]
  IC50: 9.59 µM (active)

## Cc1csc(NC(=O)/C=C/c2ccc3c(c2)OCO3)n1
[9]
  IC50: > 80 µM (inactive)

## COc1cc(NC(=O)c2ccco2)c(OC)cc1NC(=O)c1cc(OC)c(OC)c(OC)c1
H9c2
  IC50: 14.3 µM (active)
[9]
  IC50: 41.3 µM (inactive)

## CC1=CC(C)(C)n2c(O)c(/N=N/C(=N)S)c3cccc1c32
Bcl-2-related protein A1
  IC50: > 20 µM (inactive)
[7]
  IC50: 4.79 µM (active)
[8]
  IC50: 6.09 µM (active)

## Cc1ccc(S(=O)(=O)n2c(=S)[nH]c3cc(C)ccc32)cc1
Interleukin-8 [10]
  IC50: > 25 µM (inactive)
[11]
  IC50: > 20 µM (inactive)
Interleukin-8 [12]
  IC50: > 25 µM (inactive)
HEK293
  IC50: > 20 µM (inactive)
Tumor necrosis factor
  IC50: > 20 µM (inactive)

## CCN1CCN(C(=O)c2cc(-c3ccc(Cl)cc3Cl)n[nH]2)CC1
[13]
  IC50: > 100 µM (not active)
[14]
  IC50: > 100 µM (inactive)

## NC(=O)c1ncn([C@@H]2O[C@H](CNCc3cccn3-c3ccncc3)[C@@H](O)[C@H]2O)n1
Escherichia coli [1]
  AC50: 24 µM (active)

## Cc1cccc(/C=N/NC(=O)c2ccccc2OCc2cccc(Br)c2)n1
Streptococcus
  EC50: 21.5 µM (active)
Streptokinase A
  EC50: 16.1 µM (active)
Beta-galactosidase
  IC50: > 66.6 µM (inactive)
[15]
  EC50: 11 µM (active)

## COc1ccc(N(CC(=O)N2CCN(c3ccc(Cl)cc3)CC2)S(=O)(=O)c2c(C)n[nH]c2C)cc1
[9]
  IC50: > 80 µM (inactive)

## O=C(Cn1sc2ccccc2c1=O)Nc1cccc(Br)c1
Hexokinase
  IC50: > 25 µM (inactive)

## COc1ccc(S(=O)(=O)N2CCCCCC2)cc1NC(=O)c1c2c(nc3ccccc13)CCN(Cc1ccccc1)C2
Escherichia coli [1]
  AC50: 26 µM (active)
Escherichia coli [3]
  AC50: 52 µM (active)

## COc1ccc(NC(=O)Nc2ccccc2C(=O)O)cc1
Hexokinase
  IC50: > 25 µM (inactive)

## N#C/C(=C\c1cccc([N+](=O)[O-])c1)C(=O)NCc1ccc(Cl)cc1
[16]
  AC50: 1.93 µM (active)
Fatty acid synthase [17]
  IC50: 4.11 µM (active)
Beta-galactosidase
  IC50: > 66.6 µM (inactive)
Fatty acid synthase [18]
  IC50: 4.48 µM (active)

## Fc1ccc(CSc2ncnc3scc(-c4ccccc4)c23)cc1
[2]
  IC50: 2.16 µM (active)

## O=[N+]([O-])c1ccc2[nH]c(O)c(N=NC(S)=NCC3CCCO3)c2c1 (stereo not drawn)
Bcl-2-related protein A1
  IC50: > 20 µM (inactive)
[7]
  IC50: 0.664 µM (active)
[8]
  IC50: 15.9 µM (active)
